# In patent publication US20240173440A1, “HIGH PURITY COPPER RADIOPHARMACEUTICAL COMPOSITIONS AND DIAGNOSTIC AND THERAPEUTIC USES THEREOF” (Nuclidium AG, priority 2022, published 2024):
# System: LNCaP xenografts
# Test: Quantitative biodistribution in LNCaP xenografted mice
# Format: in vivo
# Conditions: for kidney uptake: 1h p.i.
# [1] = LNCap xenograft mice, 1 h after injection
# [2] = LNCap xenograft mice, 4 h after injection
# Method: The mice were randomly distributed in groups and euthanized at 1 and at 4 hours post-injection. The organs of interest were collected, rinsed, blotted, weighed and counted in a gamma counter. The results are expressed as percentage of injected activity per gram (% IA/g), representing the mean±standard deviation of n=4-8 mice per group and they were obtained by extrapolation from counts of an aliquot taken from the injected solution as standard.
# The biodistribution of the [^61Cu]Cu-NODAGA radiotracers was compared with the reference compounds used in patients under identical experimental conditions. The mice were randomly distributed in groups, injected with the radiotracer under investigation and euthanized at 1 and at 4 hours post-injection of the radiotracers under investigation. The organs of interest were collected, rinsed, blotted, weighed and counted in a gamma counter. The results are expressed as percentage of injected activity per gram (% IA/g), representing the mean±standard deviation of all mice per group and they were obtained by extrapolation from counts of an aliquot taken from the injected solution as standard.
smiles,measurement,setting,value
O=C(O)CC[C@H](NC(=O)N[C@@H](CCCCNC(=O)CCCCCCC(=O)NCCCC[C@@H](NC(=O)[C@@H](Cc1ccccc1)NC(=O)[C@@H](Cc1ccc(O)c(I)c1)NC(=O)CC[C@H](C(=O)O)N1CCN2CCN(CC1)CC(=O)[O][61Cu][O]C(=O)C2)C(=O)O)C(=O)O)C(=O)O [[^61Cu]Cu-NODAGA-PSMA-I&T],Biodistribution Adrenal,"1 hour p.i., LNCaP xenografts",17.3 ± 3.26 % IA/g
same,Biodistribution Blood,"1 hour p.i., LNCaP xenografts",0.28 ± 0.06 % IA/g
same,Biodistribution Bone,"1 hour p.i., LNCaP xenografts",2.73 ± 0.91 % IA/g
same,Biodistribution Heart,"1 hour p.i., LNCaP xenografts",0.45 ± 0.15 % IA/g
same,Biodistribution Intestine,"1 hour p.i., LNCaP xenografts",2.11 ± 0.78 % IA/g
same,Biodistribution Kidneys,"1 hour p.i., LNCaP xenografts",118 ± 13 % IA/g
same,Biodistribution LNCaP-tumor,"1 hour p.i., LNCaP xenografts",14.0 ± 5.0 % IA/g
same,Biodistribution Liver,"1 hour p.i., LNCaP xenografts",1.02 ± 0.28 % IA/g
same,Biodistribution Lung,"1 hour p.i., LNCaP xenografts",1.69 ± 0.45 % IA/g
same,Biodistribution Muscle,"1 hour p.i., LNCaP xenografts",1.12 ± 0.32 % IA/g
same,Biodistribution Pancreas,"1 hour p.i., LNCaP xenografts",0.97 ± 0.36 % IA/g
same,Biodistribution Salivary glands,"1 hour p.i., LNCaP xenografts",2.01 ± 0.33 % IA/g
same,Biodistribution Spleen,"1 hour p.i., LNCaP xenografts",6.04 ± 1.87 % IA/g
same,Biodistribution Stomach,"1 hour p.i., LNCaP xenografts",1.13 ± 0.20 % IA/g
same,Ratio Tumor/Blood,"1 hour p.i., LNCaP xenografts",55.8 ± 20.0
same,Ratio Tumor/Kidney,"1 hour p.i., LNCaP xenografts",0.13 ± 0.03
same,Ratio Tumor/Liver,"1 hour p.i., LNCaP xenografts",14.9 ± 4.9
same,Ratio Tumor/Muscles,"1 hour p.i., LNCaP xenografts",13.6 ± 3.75
same,kidney uptake,injected amount 200 μmol (so in the source),96 % IA/g
same,kidney uptake,injected amount 400 μmol (so in the source),72 % IA/g
same,kidney uptake,injected amount 1000 μmol (so in the source),34 % IA/g
same,Biodistribution Adrenal,"4 hours p.i., LNCaP xenografts",8.32 ± 2.87 % IA/g
same,Biodistribution Blood,"4 hours p.i., LNCaP xenografts",0.10 ± 0.03 % IA/g
same,Biodistribution Bone,"4 hours p.i., LNCaP xenografts",1.34 ± 0.48 % IA/g
same,Biodistribution Heart,"4 hours p.i., LNCaP xenografts",0.22 ± 0.05 % IA/g
same,Biodistribution Intestine,"4 hours p.i., LNCaP xenografts",1.06 ± 0.50 % IA/g
same,Biodistribution Kidneys,"4 hours p.i., LNCaP xenografts",91 ± 10 % IA/g
same,Biodistribution LNCaP-tumor,"4 hours p.i., LNCaP xenografts",10.7 ± 3.3 % IA/g
same,Biodistribution Liver,"4 hours p.i., LNCaP xenografts",0.72 ± 0.11 % IA/g
same,Biodistribution Lung,"4 hours p.i., LNCaP xenografts",0.74 ± 0.19 % IA/g
same,Biodistribution Muscle,"4 hours p.i., LNCaP xenografts",0.50 ± 0.22 % IA/g
same,Biodistribution Pancreas,"4 hours p.i., LNCaP xenografts",0.45 ± 0.09 % IA/g
same,Biodistribution Salivary glands,"4 hours p.i., LNCaP xenografts",0.52 ± 0.06 % IA/g
same,Biodistribution Spleen,"4 hours p.i., LNCaP xenografts",1.28 ± 0.39 % IA/g
same,Biodistribution Stomach,"4 hours p.i., LNCaP xenografts",0.66 ± 0.15 % IA/g
same,Ratio Tumor/Blood,"4 hours p.i., LNCaP xenografts",109 ± 43
same,Ratio Tumor/Kidney,"4 hours p.i., LNCaP xenografts",0.12 ± 0.03
same,Ratio Tumor/Liver,"4 hours p.i., LNCaP xenografts",15.4 ± 5.7
same,Ratio Tumor/Muscles,"4 hours p.i., LNCaP xenografts",25.4 ± 12.0
same,tumor uptake,"4h p.i., LNCaP xenograft mice, comparison with reference radiotracer, p=0.0145",10.7±3.3 % IA/g
same,accumulation in tumor and target-positive tissues,LNCaP xenografts,high accumulation in PSMA-positive (LNCaP) tumor and PSMA-positive tissues
same,Biodistribution Adrenal,[1],17.3 ± 3.26 % IA/g
same,Biodistribution Blood,[1],0.28 ± 0.06 % IA/g
same,Biodistribution Bone,[1],2.73 ± 0.91 % IA/g
same,Biodistribution Heart,[1],0.45 ± 0.15 % IA/g
same,Biodistribution Intestine,[1],2.11 ± 0.78 % IA/g
same,Biodistribution Kidney,[1],118 ± 13 % IA/g
same,Biodistribution LNCaP-tumor,[1],14.0 ± 5.0 % IA/g
same,Biodistribution Liver,[1],1.02 ± 0.28 % IA/g
same,Biodistribution Lung,[1],1.69 ± 0.45 % IA/g
same,Biodistribution Muscle,[1],1.12 ± 0.32 % IA/g
same,Biodistribution Pancreas,[1],0.97 ± 0.36 % IA/g
same,Biodistribution Salivary gland,[1],2.01 ± 0.33 % IA/g
same,Biodistribution Spleen,[1],6.04 ± 1.87 % IA/g
same,Biodistribution Stomach,[1],1.13 ± 0.20 % IA/g
same,Ratio Tumor/Blood,[1],55.8 ± 20.0
same,Ratio Tumor/Kidney,[1],0.13 ± 0.03
same,Ratio Tumor/Liver,[1],14.9 ± 4.9
same,Ratio Tumor/Muscles,[1],13.6 ± 3.75
same,Biodistribution Adrenal,[2],8.32 ± 2.87 % IA/g
same,Biodistribution Blood,[2],0.10 ± 0.03 % IA/g
same,Biodistribution Bone,[2],1.34 ± 0.48 % IA/g
same,Biodistribution Heart,[2],0.22 ± 0.05 % IA/g
same,Biodistribution Intestine,[2],1.06 ± 0.50 % IA/g
same,Biodistribution Kidney,[2],90.9 ± 10.1 % IA/g
same,Biodistribution LNCaP-tumor,[2],10.7 ± 3.3 % IA/g
same,Biodistribution Liver,[2],0.72 ± 0.11 % IA/g
same,Biodistribution Lung,[2],0.74 ± 0.19 % IA/g
same,Biodistribution Muscle,[2],0.50 ± 0.22 % IA/g
same,Biodistribution Pancreas,[2],0.45 ± 0.09 % IA/g
same,Biodistribution Salivary gland,[2],0.52 ± 0.06 % IA/g
same,Biodistribution Spleen,[2],1.28 ± 0.39 % IA/g
same,Biodistribution Stomach,[2],0.66 ± 0.15 % IA/g
same,Ratio Tumor/Blood,[2],109 ± 43
same,Ratio Tumor/Kidney,[2],0.12 ± 0.03
same,Ratio Tumor/Liver,[2],15.4 ± 5.7
same,Ratio Tumor/Muscles,[2],25.4 ± 12.0
